Assay results published in ChEMBL document CHEMBL1649524, “Resistance selection studies comparing the activity of razupenem (PTZ601) to vancomycin and linezolid against eight methicillin-resistant and two methicillin-susceptible Staphylococcus aureus strains” (2009).
Converted amounts (≈) assume the structure as drawn.

Key:
[1] = test system: Staphylococcus aureus; test: Antimicrobial activity against methicillin-resistant Staphylococcus aureus 547 measured on day 25 by macrodilution method; assay type: functional; conditions: Staphylococcus aureus, 547, 600 h
[2] = test system: Staphylococcus aureus; test: Antimicrobial activity against heterogeneous vancomycin-intermediate Staphylococcus aureus 168 measured on day 25 by macrodilution method; assay type: functional; conditions: Staphylococcus aureus, 168, 600 h
[3] = test system: Staphylococcus aureus; test: Antimicrobial activity against methicillin-resistant Staphylococcus aureus 525 measured on day 30 by macrodilution method; assay type: functional
[4] = test system: Staphylococcus aureus; test: Antimicrobial activity against methicillin-susceptible Staphylococcus aureus 540 measured on day 50 by macrodilution method; assay type: functional
[5] = test system: Staphylococcus aureus; test: Antimicrobial activity against vancomycin-intermediate Staphylococcus aureus 1287 after 50 passages by macrodilution method; assay type: functional
[6] = test system: Staphylococcus aureus; test: Antimicrobial activity against vancomycin-intermediate Staphylococcus aureus 555 measured on day 45 by macrodilution method; assay type: functional
[7] = test system: Staphylococcus aureus; test: Antimicrobial activity against vancomycin-intermediate Staphylococcus aureus 555 measured on day 20 by macrodilution method; assay type: functional; conditions: Staphylococcus aureus, 555, 480 h
[8] = test system: Staphylococcus aureus; test: Antimicrobial activity against vancomycin-intermediate Staphylococcus aureus 555 measured on day 35 by macrodilution method; assay type: functional
[9] = test system: Staphylococcus aureus; test: Antimicrobial activity against methicillin-susceptible Staphylococcus aureus 540 measured on day 45 by macrodilution method; assay type: functional
[10] = test system: Staphylococcus aureus; test: Antimicrobial activity against methicillin-susceptible Staphylococcus aureus 540 measured on day 40 by macrodilution method; assay type: functional
[11] = test system: Staphylococcus aureus; test: microbe, parasite or virus in culture; conditions: 555
Description: Antimicrobial activity against vancomycin-intermediate Staphylococcus aureus 555 after 50 passages by macrodilution method

[12] = test system: Staphylococcus aureus; test: Antimicrobial activity against vancomycin-intermediate Staphylococcus aureus 555 measured on day 25 by macrodilution method; assay type: functional; conditions: Staphylococcus aureus, 555, 600 h
[13] = test system: Staphylococcus aureus; test: Antimicrobial activity against methicillin-resistant Staphylococcus aureus 525 measured on day 20 by macrodilution method; assay type: functional; conditions: Staphylococcus aureus, 525, 480 h
[14] = test system: Staphylococcus aureus; test: Antimicrobial activity against heterogeneous vancomycin-intermediate Staphylococcus aureus 168 measured on day 40 by macrodilution method; assay type: functional
[15] = test system: Staphylococcus aureus; test: Antimicrobial activity against vancomycin-intermediate Staphylococcus aureus 555 measured on day 5 by macrodilution method; assay type: functional; conditions: Staphylococcus aureus, 555, 120 h
[16] = test system: Staphylococcus aureus; test: Antimicrobial activity against methicillin-susceptible Staphylococcus aureus 540 measured on day 25 by macrodilution method; assay type: functional; conditions: Staphylococcus aureus, 540, 600 h
[17] = test system: Staphylococcus aureus; test: Antimicrobial activity against methicillin-resistant Staphylococcus aureus 547 measured on day 50 by macrodilution method; assay type: functional
[18] = test system: Staphylococcus aureus; test: Antimicrobial activity against methicillin-susceptible Staphylococcus aureus 543 measured on day 25 by macrodilution method; assay type: functional; conditions: Staphylococcus aureus, 543, 600 h
[19] = test system: Staphylococcus aureus; test: Antimicrobial activity against methicillin-susceptible Staphylococcus aureus 543 measured on day 15 by macrodilution method; assay type: functional; conditions: Staphylococcus aureus, 543, 360 h
[20] = test system: Staphylococcus aureus; test: Antimicrobial activity against methicillin-resistant Staphylococcus aureus 525 measured on day 50 by macrodilution method; assay type: functional
[21] = test system: Staphylococcus aureus; test: Antimicrobial activity against vancomycin-resistant Staphylococcus aureus 510 after 50 passages by macrodilution method; assay type: functional
[22] = test system: Staphylococcus aureus; test: Antimicrobial activity against heterogeneous vancomycin-intermediate Staphylococcus aureus 873 measured on day 30 by macrodilution method; assay type: functional
[23] = test system: Staphylococcus aureus; test: Antimicrobial activity against vancomycin-intermediate Staphylococcus aureus 555 measured on day 10 by macrodilution method; assay type: functional; conditions: Staphylococcus aureus, 555, 240 h
[24] = test system: Staphylococcus aureus; test: Antimicrobial activity against vancomycin-intermediate Staphylococcus aureus 1287 measured on day 45 by macrodilution method; assay type: functional
[25] = test system: Staphylococcus aureus; test: Antimicrobial activity against methicillin-resistant Staphylococcus aureus 525 measured on day 40 by macrodilution method; assay type: functional
[26] = test system: Staphylococcus aureus; test: Antimicrobial activity against methicillin-susceptible Staphylococcus aureus 540 measured on day 30 by macrodilution method; assay type: functional
[27] = test system: Staphylococcus aureus; test: Antimicrobial activity against vancomycin-resistant Staphylococcus aureus 509 measured after 10 antibiotic-free subculturing by macrodilution method; assay type: functional
[28] = test system: Staphylococcus aureus; test: Antimicrobial activity against methicillin-susceptible Staphylococcus aureus 543 measured on day 50 by macrodilution method; assay type: functional
[29] = test system: Staphylococcus aureus; test: Antimicrobial activity against heterogeneous vancomycin-intermediate Staphylococcus aureus 168 measured on day 20 by macrodilution method; assay type: functional; conditions: Staphylococcus aureus, 168, 480 h
[30] = test system: Staphylococcus aureus; test: Antimicrobial activity against methicillin-susceptible Staphylococcus aureus 543 measured on day 20 by macrodilution method; assay type: functional; conditions: Staphylococcus aureus, 543, 480 h
[31] = test system: Staphylococcus aureus; test: Antimicrobial activity against methicillin-susceptible Staphylococcus aureus 543 measured on day 35 by macrodilution method; assay type: functional
[32] = test system: Staphylococcus aureus; test: Antimicrobial activity against heterogeneous vancomycin-intermediate Staphylococcus aureus 168 measured on day 50 by macrodilution method; assay type: functional
[33] = test system: Staphylococcus aureus; test: Antimicrobial activity against methicillin-resistant Staphylococcus aureus 525 after 50 passages by macrodilution method; assay type: functional
[34] = test system: Staphylococcus aureus; test: Antimicrobial activity against vancomycin-resistant Staphylococcus aureus 509 by macrodilution method; assay type: functional
[35] = test system: Staphylococcus aureus; test: Antimicrobial activity against vancomycin-intermediate Staphylococcus aureus 1287 measured on day 50 by macrodilution method; assay type: functional
[36] = test system: Staphylococcus aureus; test: Antimicrobial activity against vancomycin-intermediate Staphylococcus aureus 555 measured on day 40 by macrodilution method; assay type: functional
[37] = test system: Staphylococcus aureus; test: Antimicrobial activity against vancomycin-intermediate Staphylococcus aureus 555 measured on day 50 by macrodilution method; assay type: functional
[38] = test system: Staphylococcus aureus; test: Antimicrobial activity against methicillin-susceptible Staphylococcus aureus 543 measured on day 45 by macrodilution method; assay type: functional
[39] = test system: Staphylococcus aureus; test: Antimicrobial activity against methicillin-susceptible Staphylococcus aureus 540 measured on day 35 by macrodilution method; assay type: functional
[40] = test system: Staphylococcus aureus; test: Antimicrobial activity against heterogeneous vancomycin-intermediate Staphylococcus aureus 168 after 50 passages by macrodilution method; assay type: functional
[41] = test system: Staphylococcus aureus; test: Antimicrobial activity against methicillin-susceptible Staphylococcus aureus 540 after 50 passages by macrodilution method
[42] = test system: Staphylococcus aureus; test: Antimicrobial activity against vancomycin-intermediate Staphylococcus aureus 1287 measured on day 15 by macrodilution method; assay type: functional; conditions: Staphylococcus aureus, 1287, 360 h
[43] = test system: Staphylococcus aureus; test: Antimicrobial activity against methicillin-susceptible Staphylococcus aureus 540 measured on day 15 by macrodilution method; assay type: functional; conditions: Staphylococcus aureus, 540, 360 h
[44] = test system: Staphylococcus aureus; test: Antimicrobial activity against vancomycin-intermediate Staphylococcus aureus 555 measured on day 15 by macrodilution method; assay type: functional; conditions: Staphylococcus aureus, 555, 360 h
[45] = test system: Staphylococcus aureus; test: Antimicrobial activity against methicillin-susceptible Staphylococcus aureus 543 after 50 passages by macrodilution method; assay type: functional
[46] = test system: Staphylococcus aureus; test: Antimicrobial activity against vancomycin-intermediate Staphylococcus aureus 555 measured on day 30 by macrodilution method; assay type: functional
[47] = test system: Staphylococcus aureus; test: Antimicrobial activity against heterogeneous vancomycin-intermediate Staphylococcus aureus 168 measured on day 35 by macrodilution method; assay type: functional
[48] = test system: Staphylococcus aureus; test: Antimicrobial activity against vancomycin-intermediate Staphylococcus aureus 555 by macrodilution method; assay type: functional
[49] = test system: Staphylococcus aureus; test: Antimicrobial activity against methicillin-resistant Staphylococcus aureus 525 measured on day 35 by macrodilution method; assay type: functional
[50] = test system: Staphylococcus aureus; test: Antimicrobial activity against methicillin-resistant Staphylococcus aureus 525 measured on day 45 by macrodilution method; assay type: functional
[51] = test system: Staphylococcus aureus; test: Antimicrobial activity against methicillin-susceptible Staphylococcus aureus 540 measured on day 20 by macrodilution method; assay type: functional; conditions: Staphylococcus aureus, 540, 480 h
[52] = test system: Staphylococcus aureus; test: Antimicrobial activity against methicillin-resistant Staphylococcus aureus 547 measured on day 35 by macrodilution method; assay type: functional
[53] = test system: Staphylococcus aureus; test: microbe, parasite or virus in culture; conditions: 547
Description: Antimicrobial activity against methicillin-resistant Staphylococcus aureus 547 after 50 passages by macrodilution method

[54] = test system: Staphylococcus aureus; test: Antimicrobial activity against methicillin-resistant Staphylococcus aureus 547 measured on day 30 by macrodilution method; assay type: functional
[55] = test system: Staphylococcus aureus; test: Antimicrobial activity against methicillin-susceptible Staphylococcus aureus 543 measured on day 30 by macrodilution method; assay type: functional
[56] = test system: Staphylococcus aureus; test: Antimicrobial activity against vancomycin-resistant Staphylococcus aureus 510 by macrodilution method; assay type: functional
[57] = test system: Staphylococcus aureus; test: Antimicrobial activity against heterogeneous vancomycin-intermediate Staphylococcus aureus 168 measured on day 45 by macrodilution method; assay type: functional

CN[C@H](CC(C)C)C(=O)N[C@H]1C(=O)N[C@@H](CC(N)=O)C(=O)N[C@H]2C(=O)N[C@H]3C(=O)N[C@H](C(=O)N[C@H](C(=O)O)c4cc(O)cc(O)c4-c4cc3ccc4O)[C@H](O)c3ccc(c(Cl)c3)Oc3cc2cc(c3O[C@@H]2O[C@H](CO)[C@@H](O)[C@H](O)[C@H]2O[C@H]2C[C@](C)(N)[C@H](O)[C@H](C)O2)Oc2ccc(cc2Cl)[C@H]1O [VANCOMYCIN]
MIC [1]: 8 µg/mL (≈ 5.52 µM) | MIC [2]: 8 µg/mL (≈ 5.52 µM) | MIC [3]: 0.06 µg/mL (≈ 0.0414 µM) | MIC [4]: 8 µg/mL (≈ 5.52 µM) | MIC [5]: 8 µg/mL (≈ 5.52 µM) | MIC [6]: 32 µg/mL (≈ 22.1 µM) | MIC [7]: 8 µg/mL (≈ 5.52 µM) | MIC [8]: 32 µg/mL (≈ 22.1 µM) | MIC [9]: 16 µg/mL (≈ 11 µM) | MIC [10]: 32 µg/mL (≈ 22.1 µM) | MIC [11]: 8 µg/mL (≈ 5.52 µM) | MIC [12]: 8 µg/mL (≈ 5.52 µM) | MIC [13]: 8 µg/mL (≈ 5.52 µM) | MIC [14]: 8 µg/mL (≈ 5.52 µM) | MIC [15]: 8 µg/mL (≈ 5.52 µM) | MIC [16]: 8 µg/mL (≈ 5.52 µM) | MIC [17]: 8 µg/mL (≈ 5.52 µM) | MIC [18]: 8 µg/mL (≈ 5.52 µM) | MIC [19]: 8 µg/mL (≈ 5.52 µM) | MIC [20]: 8 µg/mL (≈ 5.52 µM) | MIC [21]: ≥ 64 µg/mL | MIC [22]: 8 µg/mL (≈ 5.52 µM) | MIC [23]: 8 µg/mL (≈ 5.52 µM) | MIC [24]: 8 µg/mL (≈ 5.52 µM) | MIC [25]: 16 µg/mL (≈ 11 µM) | MIC [26]: 8 µg/mL (≈ 5.52 µM) | MIC [27]: > 64 µg/mL | MIC [28]: 8 µg/mL (≈ 5.52 µM) | MIC [29]: 8 µg/mL (≈ 5.52 µM) | MIC [30]: 8 µg/mL (≈ 5.52 µM) | MIC [31]: 8 µg/mL (≈ 5.52 µM) | MIC [32]: 8 µg/mL (≈ 5.52 µM) | MIC [33]: 8 µg/mL (≈ 5.52 µM) | MIC [34]: > 64 µg/mL | MIC [35]: 8 µg/mL (≈ 5.52 µM) | MIC [36]: 32 µg/mL (≈ 22.1 µM) | MIC [37]: 8 µg/mL (≈ 5.52 µM) | MIC [38]: 8 µg/mL (≈ 5.52 µM) | MIC [39]: 8 µg/mL (≈ 5.52 µM) | MIC [40]: 8 µg/mL (≈ 5.52 µM) | MIC [41]: 8 µg/mL (≈ 5.52 µM) | MIC [42]: 8 µg/mL (≈ 5.52 µM) | MIC [43]: 8 µg/mL (≈ 5.52 µM) | MIC [44]: 8 µg/mL (≈ 5.52 µM) | MIC [45]: 8 µg/mL (≈ 5.52 µM) | MIC [46]: 16 µg/mL (≈ 11 µM) | MIC [47]: 8 µg/mL (≈ 5.52 µM) | MIC [48]: 8 µg/mL (≈ 5.52 µM) | MIC [49]: 8 µg/mL (≈ 5.52 µM) | MIC [50]: 8 µg/mL (≈ 5.52 µM) | MIC [51]: 8 µg/mL (≈ 5.52 µM) | MIC [52]: 8 µg/mL (≈ 5.52 µM) | MIC [53]: 8 µg/mL (≈ 5.52 µM) | MIC [54]: 16 µg/mL (≈ 11 µM) | MIC [55]: 8 µg/mL (≈ 5.52 µM) | MIC [56]: 64 µg/mL (≈ 44.2 µM) | MIC [57]: 8 µg/mL (≈ 5.52 µM)
